Experimental data: ChEMBL document CHEMBL3885861, “Open TG-GATES”

Species on record: Rattus norvegicus
Assay: Open TG-GATES - Regimen: Single
Format: toxicity, organism-based, Sprague-Dawley
Set-up: regimen Single, gender Male, age 6 weeks
Conditions: in vivo, po, 100 mg/kg, route gavage, dose level Low; for APTT / Bas / Eos / Fbg / Hb / Ht / Lym / MCH / MCHC / MCV / Mono / Neu / PT / Plat / RBC / Ret / WBC: tissue Blood; for KIDNEY_L / KIDNEY_R / KIDNEY_TOTAL: tissue Kidney; for LIVER: tissue Liver; for A/G / ALP / ALT / AST / BUN / CRE / Ca / Cl / DBIL / GLC / IP / K / LDH / Na / PL / RALB / TBIL / TC / TG / TP / gamma-GTP: tissue Plasma

## CCCCNC(=O)NS(=O)(=O)c1ccc(C)cc1 [TOLBUTAMIDE]
3 h
  TERMINAL_BW: 205.3 g
  APTT: 21 s
  Bas: 0%
  Eos: 1%
  Fbg: 274.2 mg/dL
  Hb: 13.4 g/dL
  Ht: 41.4%
  Lym: 73%
  MCH: 20.9 pg
  MCHC: 32.3%
  MCV: 64.7 fL
  Mono: 3.4%
  Neu: 21.8%
  PT: 13.2 s
  Plat: 122.1 x10_4/uL
  RBC: 641 x10_4/ul
  Ret: 8.8%
  WBC: 90.7 x10_2/uL
  KIDNEY_L: 1 g
  KIDNEY_R: 1 g
  KIDNEY_TOTAL: 2 g
  LIVER: 9.2 g
  A/G: 0.9
  ALP: 1360.8 IU/L
  ALT: 49 IU/L
  AST: 92 IU/L
  BUN: 10.8 mg/dL
  CRE: 0.2 mg/dL
  Ca: 10.8 mg/dL
  Cl: 106.2 meq/L
  DBIL: 0.004 mg/dL
  GLC: 156.2 mg/dL
  IP: 8.5 mg/dL
  K: 4 meq/L
  LDH: 63.6 IU/L
  Na: 141.4 meq/L
  PL: 129 mg/dL
  RALB: 2.5 g/dL
  TBIL: 0.058 mg/dL
  TC: 73.4 mg/dL
  TG: 48 mg/dL
  TP: 5.3 g/dL
  gamma-GTP: 1.2 IU/L
6 h
  TERMINAL_BW: 204.4 g
  APTT: 16.5 s
  Bas: 0%
  Eos: 1%
  Fbg: 278.2 mg/dL
  Hb: 13.5 g/dL
  Ht: 41.6%
  Lym: 75%
  MCH: 20.9 pg
  MCHC: 32.3%
  MCV: 64.8 fL
  Mono: 2.2%
  Neu: 20.4%
  PT: 13.2 s
  Plat: 124.3 x10_4/uL
  RBC: 642.6 x10_4/ul
  Ret: 9.1%
  WBC: 98.3 x10_2/uL
  KIDNEY_L: 0.9 g
  KIDNEY_R: 0.9 g
  KIDNEY_TOTAL: 1.8 g
  LIVER: 8.8 g
  A/G: 0.9
  ALP: 1403.8 IU/L
  ALT: 40.4 IU/L
  AST: 71.8 IU/L
  BUN: 10.4 mg/dL
  CRE: 0.2 mg/dL
  Ca: 10.9 mg/dL
  Cl: 106.8 meq/L
  DBIL: 0.006 mg/dL
  GLC: 137.4 mg/dL
  IP: 9.8 mg/dL
  K: 3.9 meq/L
  LDH: 50.2 IU/L
  Na: 141.8 meq/L
  PL: 134 mg/dL
  RALB: 2.5 g/dL
  TBIL: 0.06 mg/dL
  TC: 72.4 mg/dL
  TG: 64.2 mg/dL
  TP: 5.2 g/dL
  gamma-GTP: 1.2 IU/L
9 h
  TERMINAL_BW: 201.2 g
  APTT: 16.5 s
  Bas: 0%
  Eos: 1.2%
  Fbg: 288.4 mg/dL
  Hb: 13.6 g/dL
  Ht: 41.6%
  Lym: 72.6%
  MCH: 20.9 pg
  MCHC: 32.7%
  MCV: 63.9 fL
  Mono: 1.6%
  Neu: 24%
  PT: 13.5 s
  Plat: 122.2 x10_4/uL
  RBC: 650.4 x10_4/ul
  Ret: 8.3%
  WBC: 89.4 x10_2/uL
  KIDNEY_L: 0.9 g
  KIDNEY_R: 0.9 g
  KIDNEY_TOTAL: 1.8 g
  LIVER: 7.9 g
  A/G: 0.9
  ALP: 1515.4 IU/L
  ALT: 39.2 IU/L
  AST: 80.4 IU/L
  BUN: 10 mg/dL
  CRE: 0.2 mg/dL
  Ca: 10.7 mg/dL
  Cl: 107.4 meq/L
  DBIL: 0.002 mg/dL
  GLC: 158.2 mg/dL
  IP: 9.7 mg/dL
  K: 4.1 meq/L
  LDH: 66.6 IU/L
  Na: 142.4 meq/L
  PL: 122.8 mg/dL
  RALB: 2.5 g/dL
  TBIL: 0.064 mg/dL
  TC: 69.4 mg/dL
  TG: 34.6 mg/dL
  TP: 5.2 g/dL
  gamma-GTP: 1 IU/L
24 h
  TERMINAL_BW: 220.2 g
  APTT: 17.7 s
  Bas: 0.2%
  Eos: 1%
  Fbg: 273.6 mg/dL
  Hb: 13.3 g/dL
  Ht: 41%
  Lym: 80.4%
  MCH: 20.8 pg
  MCHC: 32.5%
  MCV: 64.1 fL
  Mono: 2.4%
  Neu: 15.4%
  PT: 12.9 s
  Plat: 129 x10_4/uL
  RBC: 640.4 x10_4/ul
  Ret: 7.7%
  WBC: 82.4 x10_2/uL
  KIDNEY_L: 1 g
  KIDNEY_R: 1 g
  KIDNEY_TOTAL: 2 g
  LIVER: 10.2 g
  A/G: 0.9
  ALP: 1457.6 IU/L
  ALT: 46.4 IU/L
  AST: 73 IU/L
  BUN: 14.6 mg/dL
  CRE: 0.2 mg/dL
  Ca: 11.2 mg/dL
  Cl: 104.4 meq/L
  DBIL: 0.008 mg/dL
  GLC: 174.6 mg/dL
  IP: 8.7 mg/dL
  K: 4.2 meq/L
  LDH: 69 IU/L
  Na: 142 meq/L
  PL: 148.2 mg/dL
  RALB: 2.5 g/dL
  TBIL: 0.066 mg/dL
  TC: 80.6 mg/dL
  TG: 70.8 mg/dL
  TP: 5.3 g/dL
  gamma-GTP: 1.2 IU/L
